Data published in US20250145600A1, “2-((4-((S)-2-(4-CHLORO-2-FLUOROPHENYL)-2-METHYLBENZO[D][1,3]DIOXOL-4-YL)PIPERIDIN-1-YL)METHYL)-1-(((S)-OXETAN-2-YL)METHYL)-1H-IMIDAZOLE DERIVATIVES AS ACTIVATORS OF THE GLP1 RECEPTOR FOR THE TREATMENT OF OBESITY” (Novartis AG, priority 2022, published 2025).

Biological target: human GLP1R (hGLP1R) (Homo sapiens, UniProt P43220)
Assay: Human GLP1R β-arrestin recruitment assay (PathHunter)
Assay type: cell-based
Design: insert synthesized by GeneArt 93-0164 (CHO-K1-EA parental cells); 93-0491 (pCMV PK vector bundle)
Settings: CHO-hGLP1R-β-arrestin cells; for EC50: 2 h at 37° C., top concentration 30 μM, read-out: Beta-Arrestin assay EC50 Mean; for Emax: relative to GLP1(7-36), read-out: Beta-Arrestin assay Emax (%)
Protocol: Compounds of formula (I) according to the invention were tested in the following cellular assays that measure the intracellular cAMP concentration, beta-arrestin recruitment and receptor internalization. The cAMP is generated by the activation of GLP1R. The extent to which the GLP1R is internalized into the cell and away from the plasma membrane following activation is also shown in Table 2. EC50 for each assay is defined as the concentration of the compound that leads to half of the maximum response (after baseline correction). Emax is defined as the maximum response observed for the test compound, normalized to the maximum response observed for the endogenous ligand (GLP1(7-36)) to GLP1R.
Human GLP1R β-Arrestin Recruitment Assay
The extent to which agonists recruited β-arrestin was measured using the PathHunter® β-arrestin assay (DiscoverX). This assay measures binding of β-arrestin to the receptor using an enzyme complementation approach. […] When β-arrestin is recruited to the receptor the enzyme becomes active and generates luminescence in the presence of a chemiluminescent substrate (PathHunter® Detection Kit, DiscoverX cat #93-0001). Luminescence can be measured on a relevant detector. CHO-hGLP1R-β-arrestin cells stably overexpressing hGLP1R with Prolink tag and β-arrestin with EA tag were seeded at 20 μL per well in white 384-well poly-D-Lysine coated plates (Greiner Bio One, cat #781945) in Plating Reagent 2 (DiscoverX, cat #93-0563R^2A), and incubated overnight at 37° C., 5% CO2 with humidity. The following day, agonists were prepared at 5 times the final required concentration. To generate triplicate dose response curves, compounds were serially diluted 3-fold in assay buffer (HBSS, 10 mM Hepes and 0.1% BSA), then added to the cell assay plate to a final volume of 25 μL and final top concentrations starting at 30 μM. In the same plate and assay buffer as the tested compounds, were EC100 control wells containing GLP1 (7-36) peptide (Bachem, cat #H-6795) at a final concentration of 1 μM and also EC0 control wells containing no compound. The plate was incubated at 37° C., 5% CO2 with humidity for 2 h after adding the compounds to the cells. Then the detection reagent was prepared (19 parts cell assay buffer, 5 parts substrate reagent 1 and 1 part substrate reagent 2 as per manufacturers recommendations, DiscoverX cat #93-0001), and 12 μL were added per well to the cell assay plate. The plate was incubated for an additional hour in the dark at RT. Luminescence was then measured with an Envision 2104 Multilabel reader with “TRF Light Unit, 337 nm” (Perkin Elmer) using the Ultra-Sensitive protocol setting “384-well US luminescence detector” with the 384-well luminescence aperture, 0.1 sec per well. β-arrestin recruitment was calculated and expressed as percent of the GLP1 (7-36) EC100 control wells: [(sample signal−mean EC0 signal)/(mean EC100 of GLP1 (7-36) signal−mean EC0 signal)]*100 using Microsoft Excel. Curve fitting for EC50 determinations was performed using GraphPad Prism. The 4-parameter logistic model, Hill slope was used: Y=Bottom+(Top−Bottom)/(1+10^((Log EC50−X)*Hill Slope)), where Y is the functional response; X is the compound concentration; bottom is A0 or the minimum value (at 0 dose); top is Ainf or the maximum value (at infinite dose); EC50 is the point of inflection (i.e. the point on the sigmoid shaped curve halfway between A0 and Ainf). The EC50 value was calculated in μM. Emax is the maximal activity detected within the concentration range, derived from the fitted curve relative to GLP1(7-36).
PathHunter CHO-K1-EA parental cells (DiscoverX, cat #93-0164) were plated at a density of 2×10^6 cells per T75 cm^2 flask in 22 mL of complete medium (AssayComplete Cell Culture kit 107, DiscoverX, cat #92-3107G). The following day, the medium was replaced with 22 mL of fresh medium with no antibiotics and cells were transfected as follows. […]

Sequence of human GLP1R (hGLP1R) (P43220 24-463): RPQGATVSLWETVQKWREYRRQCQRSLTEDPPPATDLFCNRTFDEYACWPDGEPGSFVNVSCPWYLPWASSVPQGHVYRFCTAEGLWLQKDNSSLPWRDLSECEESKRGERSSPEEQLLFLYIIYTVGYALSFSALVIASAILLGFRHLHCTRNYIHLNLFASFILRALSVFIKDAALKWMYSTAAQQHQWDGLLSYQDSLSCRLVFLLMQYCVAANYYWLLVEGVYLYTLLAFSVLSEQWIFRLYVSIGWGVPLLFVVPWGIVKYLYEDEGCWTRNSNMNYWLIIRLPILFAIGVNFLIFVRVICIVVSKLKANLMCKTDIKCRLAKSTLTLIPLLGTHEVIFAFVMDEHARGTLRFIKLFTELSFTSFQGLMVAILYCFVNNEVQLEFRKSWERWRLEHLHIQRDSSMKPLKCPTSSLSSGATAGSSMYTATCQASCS

Row | Compound | EC50 | Emax
1 | Cc1nc(CN2CCC(c3cccc4c3O[C@@](C)(c3ccc(Cl)cc3F)O4)CC2)n(C[C@@H]2CCO2)c1-c1nc(C(=O)O)c(C)o1 [Compound C-1, 2-(2-((4-((S)-2-(4-chloro-2-fluorophenyl)-2-methylbenzo[d][1,3]dioxol-4-yl)piperidin-1-yl)methyl)-4-methyl-1-(((S)-oxetan-2-yl)methyl)-1H-imidazol-5-yl)-5-methyloxazole-4-carboxylic acid] | > 30 µM | 2%
2 | C[C@]1(c2ccc(Cl)cc2F)Oc2cccc(C3CCN(Cc4nc(C(F)(F)F)c(-c5nc(C(=O)O)co5)n4C[C@@H]4CCO4)CC3)c2O1 [Compound C-4, 2-(2-((4-((S)-2-(4-chloro-2-fluorophenyl)-2-methylbenzo[d][1,3]dioxol-4-yl)piperidin-1-yl)methyl)-1-(((S)-oxetan-2-yl)methyl)-4-(trifluoromethyl)-1H-imidazol-5-yl)oxazole-4-carboxylic acid] | > 30 µM | 0%
3 | CCc1nc(CN2CCC(c3cccc4c3O[C@@](C)(c3ccc(Cl)cc3F)O4)CC2)n(C[C@@H]2CCO2)c1-c1nc(C(=O)O)co1 [Compound C-5, 2-(2-((4-((S)-2-(4-chloro-2-fluorophenyl)-2-methylbenzo[d][1,3]dioxol-4-yl)piperidin-1-yl)methyl)-4-ethyl-1-(((S)-oxetan-2-yl)methyl)-1H-imidazol-5-yl)oxazole-4-carboxylic acid] | > 30 µM | 0%
4 | CCc1nc(CN2CCC(c3cccc4c3O[C@@](C)(c3ccc(Cl)cc3F)O4)CC2)n(C[C@H]2CCO2)c1-c1nc(C(=O)O)co1 [Compound C-7, 2-(2-((4-((S)-2-(4-chloro-2-fluorophenyl)-2-methylbenzo[d][1,3]dioxol-4-yl)piperidin-1-yl)methyl)-4-ethyl-1-(((R)-oxetan-2-yl)methyl)-1H-imidazol-5-yl)oxazole-4-carboxylic acid] | > 30 µM | 5%
5 | Cc1nc(CN2CCC(c3cccc4c3O[C@@](C)(c3ccc(Cl)cc3F)O4)CC2)n(C[C@@H]2CCO2)c1-c1nc(C(=O)O)co1 [Compound C-9, 2-(2-((4-((S)-2-(4-chloro-2-fluorophenyl)-2-methylbenzo[d][1,3]dioxol-4-yl)piperidin-1-yl)methyl)-4-methyl-1-(((S)-oxetan-2-yl)methyl)-1H-imidazol-5-yl)oxazole-4-carboxylic acid] | > 30 µM | 0%
6 | CCc1oc(-c2c(C)nc(CN3CCC(c4cccc5c4O[C@@](C)(c4ccc(Cl)cc4F)O5)CC3)n2C[C@@H]2CCO2)nc1C(=O)O [Compound C-10, 2-(2-((4-((S)-2-(4-chloro-2-fluorophenyl)-2-methylbenzo[d][1,3]dioxol-4-yl)piperidin-1-yl)methyl)-4-methyl-1-(((S)-oxetan-2-yl)methyl)-1H-imidazol-5-yl)-5-ethyloxazole-4-carboxylic acid] | > 30 µM | 0%
7 | Cc1oc(-c2nc(CN3CCC(c4cccc5c4O[C@@](C)(c4ccc(Cl)cc4F)O5)CC3)n(C[C@@H]3CCO3)c2C)nc1C(=O)O [Compound C-12, 2-(2-((4-((S)-2-(4-chloro-2-fluorophenyl)-2-methylbenzo[d][1,3]dioxol-4-yl)piperidin-1-yl)methyl)-5-methyl-1-(((S)-oxetan-2-yl)methyl)-1H-imidazol-4-yl)-5-methyloxazole-4-carboxylic acid] | > 30 µM | 10%
8 | Cc1c(-c2nc(C(=O)O)co2)nc(CN2CCC(c3cccc4c3O[C@@](C)(c3ccc(Cl)cc3F)O4)CC2)n1C[C@@H]1CCO1 [Compound C-13, 2-(2-((4-((S)-2-(4-chloro-2-fluorophenyl)-2-methylbenzo[d][1,3]dioxol-4-yl)piperidin-1-yl)methyl)-5-methyl-1-(((S)-oxetan-2-yl)methyl)-1H-imidazol-4-yl)oxazole-4-carboxylic acid] | > 30 µM | 12%
